This is an account of results in patent US20230390278A1, “SYNERGISTIC COMBINATIONS OF VALPROOIC ACID AND QUINACRINE” (VESTLANDETS INNOVASJONSSELSKAP AS, priority 2020, published 2023).

Like-named read-outs stand apart in the source and are kept apart here.

Data set [1] can be described thus: Plasma levels of QC and VPA in blood of off-label treated AML patients, measured by LC/MS. In kind it is in vivo, human. The conditions noted are these: for concentration at 3 h: 3 h after intake; for concentration at 25 day: Patient 1, day 25, QC 200 mg/day, VPA 600 + 1200 mg/day; for concentration at 64 day: Patient 1, day 64, QC 300 mg/day; for concentration at 163 day: Patient 1, day 163, QC 400 mg/day; for concentration at 65 day: Patient 2, day 65, QC 200 mg/day. The text has this:
The plasma concentration may be the blood plasma concentration or bone marrow plasma concentration. […] Plasma concentrations may be determined by liquid chromatography-mass spectrometry (LC-MS).

A short description of data set [2]: Plasma levels of QC and VPA in bone marrow (BM) of off-label treated AML patients, measured by LC/MS. In kind it is in vivo, human.
Where [3] appears, read: human, oral, VPA 300 + 600 mg/day, read-out: Plasma QC.
Where [4] appears, read: human, oral, Plasma VPA, VPA 300 + 600 mg/day.

Consider `CCN(CC)CCCC(C)Nc1c2ccc(Cl)cc2nc2ccc(OC)cc12` (racemic) [QC, (RS)-N′-(6-chloro-2-methoxy-acridin-9-yl)-N, N-diethyl-pentane-1,4-diamine], for which the concentration at 3 h amounted to 4 nM in data set [1] (human, oral, Patient 1, day 1, QC 100 mg/day, VPA 300 + 300 mg/day, read-out: Plasma QC); 8 nM in data set [1] (human, oral, Patient 2, day 1, QC 100 mg/day, VPA 300 + 600 mg/day, read-out: Plasma QC); 8 nM in data set [1] (human, oral, Patient 3, day 1, QC 100 mg/day, VPA 300 + 300 mg/day, read-out: Plasma QC). In addition, in data set [1] (human, oral, read-out: Plasma QC), the concentration at 25 day was 52 nM. The concentration at 64 day in data set [1] (human, oral, VPA 600 + 900 mg/day, read-out: Plasma QC) amounted to 138 nM. Further, the concentration at 128 day in data set [1] (human, oral, Patient 1, day 128, QC 400 mg/day, VPA 600 + 900 mg/day) was determined as 38 nM. Besides, the concentration at 163 day in data set [1] (setting [3]) was 38 nM. The concentration at 15 day was 18 nM in data set [1] (human, oral, Patient 2, day 15, QC 200 mg/day, VPA 600 + 600 mg/day, read-out: Plasma QC) and 300 nM in data set [1] (human, oral, Patient 3, day 15, QC 300 mg/day, VPA 300 + 600 mg/day, read-out: Plasma QC). The concentration at 65 day in data set [1] (setting [3]) is 130 nM. Also, the “Plasma QC, BM” value in data set [2] (Patient 1, day 163, QC 400 mg/day, VPA 300 + 600 mg/day) was “BM: 44 nM”; in data set [2] (Patient 2, day 15, QC 200 mg/day, VPA 600 + 600 mg/day), “BM: 32 nM”; in data set [2] (Patient 2, day 65, QC 200 mg/day, VPA 300 + 600 mg/day), “BM: 332 nM”.

As to `CCCC(CCC)C(=O)O` [VPA, 2-propylvaleric acid], the “Plasma VPA” value in data set [1] (Patient 1, day 128, QC 400 mg/day, VPA 600 + 900 mg/day, neg: negative) was “neg”. The concentration at 3 h in data set [1] (human, oral, Plasma VPA, Patient 1, day 1, QC 100 mg/day, VPA 300 + 300 mg/day) came to 17100 nM; in data set [1] (human, oral, Plasma VPA, Patient 2, day 1, QC 100 mg/day, VPA 300 + 600 mg/day) it was 156000 nM; in data set [1] (human, oral, Plasma VPA, Patient 3, day 1, QC 100 mg/day, VPA 300 + 300 mg/day) it was 120000 nM. The concentration at 25 day in data set [1] (human, oral, Plasma VPA) turned out to be 43000 nM. Further, the concentration at 64 day in data set [1] (human, oral, Plasma VPA, VPA 600 + 900 mg/day) was determined as 25600 nM. Besides, the concentration at 163 day in data set [1] (setting [4]) was 119000 nM. Besides, the concentration at 15 day is 442000 nM in data set [1] (human, oral, Plasma VPA, Patient 2, day 15, QC 200 mg/day, VPA 600 + 600 mg/day) and 41300 nM in data set [1] (human, oral, Plasma VPA, Patient 3, day 15, QC 300 mg/day, VPA 300 + 600 mg/day). For the same compound, in data set [1] (setting [4]), the concentration at 65 day was found to be 341000 nM.
